Columns and labels:
[1] = tested on: transepithelial permeability in vitro model; experiment: Transepithelial permeability in vitro model (TEP test), fluorescein leakage; format: cell-based; details: 0.2%, relative to vehicle/controls
Description: The compositions of Examples 1A and 1B and Comparative Example 2A were tested in vitro as follows. A transepithelial permeability in vitro model (TEP test) was used to assess fluorescein leakage (or increased transepithelial permeability) with the free acid in comparison with the ester form of the alpha linolenic acid.

[2] = Uptake by senofilcon contact lenses from IPA solution, gas chromatography; format: physicochemical
Description: ALA-EE was dissolved in isopropanol (IPA) at the concentration of 0.05 or 0.5%. Silicone hydrogel contact lenses (senofilcon, commercially available as ACUVUE® OASYS® with […]® Plus lenses) were then allowed to soak in the ALA-EE-containing IPA for up to 1 hour at room temperature, followed by soaking in ALA-EE containing IPA/packing solution (70% IPA/30% packing solution) for up to 1 hour, rinsing in packing solution, and packaging of lenses in the packing solution. ALA-EE uptake by the contact lenses was quantified by gas chromatography.
A comparative silicone hydrogel contact lens that incorporated alpha linolenic acid (ALA), rather than the ester, was prepared following the same protocol as Example 6.

[3] = tested on: "contact lens induced dry eye" subjects; experiment: Comfort upon instillation to the eye (non-dispensing clinical studies); details: human, in vivo
Description: Preliminary non-dispensing clinical studies were conducted to further assess the use of omega-three fatty acid compositions. A 0.05 wt. % concentration ester version of an omega-three fatty acid was instilled on three “contact lens induced dry eye” subjects (each with at least one sign and one symptom of contact lens induced dry eye) without any acute ocular discomfort or physiological findings. Similarly, a 0.2 wt. % concentration ester version of the omega-three fatty acid was instilled on four “contact lens induced dry eye” subjects without any acute ocular discomfort or physiological findings.

[4] = Uptake by narafilcon B contact lenses from propylene glycol solution, gas chromatography; format: physicochemical; details: for ALA-EE uptake: narafilcon B
Description: The alpha linolenic acid ethyl ester (ALA-EE) was dissolved in propylene glycol (PG) at concentrations of 0.05 and 0.5%, and silicon hydrogel lenses (Narafilcon B lenses (ACUVUE® TrueEye®)) were hydrated or soaked in the ALA-EE-containing propylene glycol solution for one hour at room temperature, followed by rinsing in DI water and repackaging of lenses in the packing solution. The lenses were packaging in borate buffer packing solution with 50 ppm methyl cellulose and autoclaved at 121° C. for 19 minutes. ALA-EE was quantified by gas chromatography.

[5] = tested on: corneal epithelium tissue construct (HCE construct, SkinEthic); details: human, 8 h
Description: (§1) The model uses a corneal epithelium tissue construct (e.g., HCE construct manufactured by SkinEthic).
(§2) The esterified anti-inflammatory lipid mediator dose-responses were then evaluated in the construct, whereby 30 microliters of the rewetting drop was topically applied to the tissue for 8 or 24 hours, and cell viability was then quantified along with a subset of selected potential biomarkers within the tissue culture media.

[6] = tested on: corneal epithelium tissue construct (HCE construct, SkinEthic); experiment: Corneal epithelial tissue model, cell viability (MTT), 8 hour exposure; details: 0.001 and 0.01%
Description: as §1, §2

CC/C=C\C/C=C\C/C=C\CCCCCCCC(=O)O [ALA, alpha-linolenic acid, reference compound]
effect on transepithelial permeability / fluorescein leakage [1]: significant increase in fluorescein leakage | uptake of ALA by the contact lenses ([2]; 0.05% ALA solution in IPA): 23 micrograms per lens | uptake of ALA by the contact lenses ([2]; 0.5% ALA solution in IPA): 300 micrograms per lens

CC/C=C\C/C=C\C/C=C\CCCCCCCC(=O)OCC [ALA-EE, ethyl linolenate]
effect on transepithelial permeability / fluorescein leakage [1]: behaved similarly to the vehicle | response on the eye (acute ocular discomfort) [3]: lack of acute ocular discomfort | ALA-EE uptake ([2]; 0.05% ALA-EE solution in IPA): 54 micrograms per lens | ALA-EE uptake ([2]; 0.5% ALA-EE solution in IPA): 611 micrograms per lens | hydrolysis of ester to free acid form ([2]; senofilcon lens loading from IPA): did not hydrolyze to the free acid form | hydrolysis of the ester to the acid ([4]; narafilcon B lens, PG loading, autoclaved 121° C.): no detectable hydrolysis | ALA-EE uptake ([4]; 0.05% ALA-EE solution): 91 micrograms per lens | ALA-EE uptake ([4]; 0.5% ALA-EE solution): 721 micrograms per lens | impact on the in vitro endpoint, times less than linolenic acid (ALA) [5]: 10 times

benzalkonium chloride [BAK]
cytotoxicity in the construct [6]: non-cytotoxic
